{"source": "patent US11260083B2", "about": "“Compositions and methods for treating and preventing graft versus host disease” (The Regents of the University of Michigan, priority 2016, dated 2022)", "key": {"[1]": {"test_system": "C3H.SW (H-2b) → C57BL/6J (H-2b) BMT recipients", "experiment": "MHC-matched, minor antigen mismatched BMT model with butyrate", "type": "in vivo, mouse", "description": "BMTs were performed as previously described (Reddy, P. et al. A crucial role for antigen-presenting cells and alloantigen expression in graft-versus-leukemia responses. Nat. Med. 11, 1244-1249 (2005); 15). Briefly, syngeneic (BALB/c→BALC/c or C57BL/6J→C57BL/6J) and allogeneic (C57BL/6J→BALB/c or C3H.sw→C57BL/6J) recipients received lethal irradiation. On day −1, BALB/c recipients received a total of 800 cGy of irradiation (split dose separated by 3 hours) and B6 animals received a single dose of 1000 cGy. […] Survival was monitored daily and the recipient body weight and GVHD clinical scores were determined weekly, as described previously42. […]\nSystemic administration of HDACi decreases acute GVHD (Reddy, P. et al. Histone deacetylase inhibitor suberoylanilide hydroxamic acid reduces acute graft-versus-host disease and preserves graft-versus-leukemia effect. Proc Natl Acad Sci USA 101, 3921-3926 (2004); Reddy, P. et al. Histone deacetylase inhibition modulates indoleamine 2,3-dioxygenasedependent DC functions and regulates experimental graft-versus-host disease in mice. J. Clin. Invest. 118, 2562-2573 (2008); Sun, Y. et al. Cutting edge: Negative regulation of dendritic cells through acetylation of the nonhistone protein STAT-3. J Immunol 182, 5899-5903 (2009)). It was therefore determined if increasing local levels of endogenous HDACi, butyrate, would impact GVHD severity. […]"}, "[2]": {"test_system": "allogeneic (C57BL/6J→BALB/c) BMT recipients", "experiment": "MHC-mismatched allo-BMT GVHD model with intragastric butyrate", "type": "in vivo, mouse", "description": "BMTs were performed as previously described (Reddy, P. et al. A crucial role for antigen-presenting cells and alloantigen expression in graft-versus-leukemia responses. Nat. Med. 11, 1244-1249 (2005); 15). Briefly, syngeneic (BALB/c→BALC/c or C57BL/6J→C57BL/6J) and allogeneic (C57BL/6J→BALB/c or C3H.sw→C57BL/6J) recipients received lethal irradiation. On day −1, BALB/c recipients received a total of 800 cGy of irradiation (split dose separated by 3 hours) and B6 animals received a single dose of 1000 cGy. Donor splenic CD90.2+ T cells were magnetically separated using an autoMACs (Miltenyi Biotec; Bergisch Gladbach, Germany) and 0.5×10^6 to 2.5×10^6 T cells were transferred to BALB/c and C57BL/6J recipients. 5×10^6 donor whole or TCD bone marrow was transferred to all recipients. Survival was monitored daily and the recipient body weight and GVHD clinical scores were determined weekly, as described previously42. Histopathologic analysis of the gastrointestinal (GI) tract was performed as described (Reddy, P. et al. A crucial role for antigen-presenting cells and alloantigen expression in graft-versus-leukemia responses. Nat. Med. 11, 1244-1249 (2005)). Animals received vehicle (sterile PBS, 0.0004 g Na+ per dose) or sodium butyrate (10 mg/kg, 0.00004 g Na+ per dose) by flexible 20G-1.5″ intragastric gavage needle daily for 1 week, then every other day thereafter.\nSystemic administration of HDACi decreases acute GVHD (Reddy, P. et al. Histone deacetylase inhibitor suberoylanilide hydroxamic acid reduces acute graft-versus-host disease and preserves graft-versus-leukemia effect. Proc Natl Acad Sci USA 101, 3921-3926 (2004); Reddy, P. et al. Histone deacetylase inhibition modulates indoleamine 2,3-dioxygenasedependent DC functions and regulates experimental graft-versus-host disease in mice. J. Clin. Invest. 118, 2562-2573 (2008); Sun, Y. et al. Cutting edge: Negative regulation of dendritic cells through acetylation of the nonhistone protein STAT-3. J Immunol 182, 5899-5903 (2009)). It was therefore determined if increasing local levels of endogenous HDACi, butyrate, would impact GVHD severity. Again using the C57BL/6J into Balb/c model, vehicle control or butyrate was administered via daily intragastric gavage for one week, followed by administration every other day for the remainder of the experiment. […] Next, to further evaluate the magnitude of the butyrate-induced protective effect, GVHD mortality was determined utilizing the MHC disparate B6 into BALB/c model."}, "primary C57BL/6J IECs": {"test_system": "primary C57BL/6J IECs", "experiment": "CTL assay: allogeneic CD8+ T cell killing of IECs", "type": "cell-based, mouse", "conditions": "butyrate pre-treated overnight, vs control", "description": "CD8+ T cells were isolated from Balb/c (H-2d) mice using anti-CD8 microbeads and LS columns (Miltenyi Biotec) following the manufacturer's instructions. CD8+ T cells were primed in the presence of irradiated (30 Gy) C57BL/6J (H-2b) splenocytes for 6 days prior to culture with primary IECs for 6 h and 16 h. Primary C57BL/6J IECs were harvested and incubated overnight in the presence or absence of butyrate 1 mM in gelatin coated (Cell Biologics Inc.; Chicago, Ill.) 100 mm-culture dishes (Fisher Scientific).\nThe potential mechanisms that contribute to butyrate-induced protection from severe GVHD were explored. Because (a) butyrate is decreased in IECs, (b) administration of butyrate mitigated GI GVHD independent of Treg cells, but (c) improved junction integrity, it was explored whether butyrate had direct effects on protecting IECs from allo-T cell mediated damage and conditioning. IECs were treated ex vivo with vehicle or butyrate for 24 hours irradiation (6 Gy) or no-irradition, followed by 24 hours of additional incubation with butyrate was performed. […] The ability of butyrate-treated IECs to withstand damage mediated by alloreactive T cells was determined by isolating and culturing primary IECs with butyrate or vehicle control, overnight. […] Because butyrate is a primary energy source for IECs 1-13, it was next determined whether butyrate enhances survival and growth of IECs in vitro. […]"}, "HAT": {"test_system": "HAT", "experiment": "HAT enzymatic activity in donor T cells from recipient spleen", "type": "in vivo, mouse", "conditions": "butyrate vs vehicle treated allogeneic animals", "description": "To further determine whether the salutary effects of local treatment with butyrate on GI GVHD were dependent on donor Treg cells, a BMT was performed utilizing the same HC mismatched BMT model in which C57BL/6J (H-2b) cells are transferred to Balb/c (H-2d) mice. T cell-depleted (TCD) bone marrow was transplanted and purified CD4+CD25− T cells from donors. Vehicle or butyrate was administered to the recipients daily for 1 week, then every other day thereafter as above. […]. J. Exp. Med. 204, 57-63 (2007); Lahl, K. & Sparwasser, T. In vivo depletion of FoxP3+ Tregs using the DEREG mouse model. […]. The Treg depleted T cells were then used as donor cells in the major MHC mismatch model used above. […] To further examine whether the local administration of butyrate impacted donor T cells directly, the HDAC and HAT enzymatic activity was determined in donor T cells harvested from the recipient animals. Both the HDAC activity or HAT activity in the donor T cells harvested from the recipient spleen were similar between butyrate and vehicle treated allogeneic animals."}, "[3]": {"conditions": "intragastric butyrate daily 1 week then every other day, vs vehicle"}}}
{"smiles": "CCCC(=O)[O-].[Na+]", "note": "[butyrate, sodium butyrate]", "values": [{"measurement": "histological scores in both the intestines and liver", "setting": "[1]; 21 days following BMT, minor antigen mismatch", "result": "decreased histological scores"}, {"measurement": "survival", "setting": "[1]; minor antigen mismatched model", "result": "improved survival"}, {"measurement": "histological scores in the intestines", "setting": "[2]; 21 days following BMT, major MHC mismatch model", "result": "decreased histological scores"}, {"measurement": "GVHD mortality / survival", "setting": "[2]; B6 into BALB/c, higher doses of T cells", "result": "significant GVHD survival benefit"}, {"measurement": "GVHD clinical scores", "setting": "[2]; [3]", "result": "decreased"}, {"measurement": "survival", "setting": "[2]; [3]", "result": "increased survival"}, {"measurement": "weight loss", "setting": "[2]; [3]", "result": "decreased weight loss"}, {"measurement": "IECs succumbing to CD8+ T cell killing", "setting": "primary C57BL/6J IECs; 6 hours co-culture", "result": "Fewer butyrate pre-treated IECs succumbed"}, {"measurement": "IECs succumbing to CD8+ T cell killing", "setting": "primary C57BL/6J IECs; 16 hours co-culture", "result": "Fewer butyrate pre-treated IECs succumbed"}, {"measurement": "HAT activity in donor T cells", "setting": "HAT", "result": "similar"}]}
